Reference: patent publication US20020127539A1, “Assays for identifying receptors having alterations in signaling” (priority 2000, published 2002)

How the values were obtained:
rat mu opioid receptor = test: CRE-Luc luciferase reporter assay with forskolin stimulation; type: cell-based; details: FIG. 3, CRE-Luc
Excerpt: Similarly, a constitutively active rat mu opioid receptor was identified using a reporter construct sensitive to Gαi coupling (see FIG. 3). The response element employed in this assay was the cAMP-response element (CRE), which is sensitive to Gαi mediated changes in intracellular levels of cAMP. Signaling through the rat mu opioid receptor via Gαi inhibits adenylate cyclase, causing a decrease in intracellular cAMP. Therefore, an increase in rat mu opioid receptor signaling induces a decrease in CRE mediated reporter activity.
Prior to the present invention, Gαi-mediated decreases in intracellular cAMP were measured by (1) stimulating cells with forskolin, which causes receptor-independent activation of adenylate cyclase and generates an intracellular pool of cAMP; (2) stimulating the cells with ligand; and (3) measuring the ligand-induced, receptor-dependent Gαi-mediated decrease in the intracellular cAMP pool (e.g., using a radioimmunoassay (e.g., New England Nuclear, Boston, Mass.)). […] The basal (and ligand-induced) level of receptor activity was then measured using a standard luciferase assay (see FIG. 3). Coexpression of the receptor of interest with a luciferase reporter gene construct allows one to measure light emission as a readout for basal signaling.

MC-4 receptor = molecular target: T1, MC-4 receptor (Homo sapiens, UniProt P32245, D146M); test: SMS-Luc luciferase reporter assay in HEK293 cells; type: cell-based; details: FIG. 10
T1 construct: expressed in transfected cells; host or cells: HEK293
Experimental: Briefly, HEK293 cells were cotransfected, as described above, with an expression vector encoding either the wild-type MC-4 receptor or the Asp146Met mutant MC-4 receptor and the reporter construct, SMS-Luc. As a negative control, cells were transfected with SMS-Luc and pcDNA1. Basal and ligand (αMHS) induced activity of the negative control, the wild-type MC-4 receptor, and the Asp146Met mutant MC-4 receptor were measured using the luciferase assay described above.

T1 sequence (P32245 whole entry D146M): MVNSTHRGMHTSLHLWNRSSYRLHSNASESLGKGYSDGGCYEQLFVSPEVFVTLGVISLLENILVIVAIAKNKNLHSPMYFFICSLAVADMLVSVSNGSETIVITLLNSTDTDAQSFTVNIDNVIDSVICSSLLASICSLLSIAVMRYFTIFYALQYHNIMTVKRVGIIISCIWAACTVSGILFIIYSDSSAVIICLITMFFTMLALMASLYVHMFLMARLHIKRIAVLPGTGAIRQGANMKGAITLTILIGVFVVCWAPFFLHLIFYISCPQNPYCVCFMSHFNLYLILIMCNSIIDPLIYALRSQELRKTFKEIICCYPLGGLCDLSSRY

| basal level activity compared to wild-type MC-4 receptor (MC-4 receptor) | Molecule | effect of agonist stimulation on forskolin induced activity (rat mu opioid receptor) |
| --- | --- | --- |
| – | C[C@@H](NC(=O)[C@@H](N)Cc1ccc(O)cc1)C(=O)NCC(=O)N(C)[C@@H](Cc1ccccc1)C(=O)NCCO [DAMGO, [D-Ala^2-MePhe^4, Gly-ol^5]enkephalin], reference compound] | decrease in forskolin induced activity |
| higher basal level activity | Asp146Met mutant MC-4 receptor: melanocortin-4 receptor with Asp146Met substitution in the DRY motif | – |
